{
  "source": "patent US9669025B2",
  "about": "(INFLAMMATORY RESPONSE RESEARCH, INC., priority 2013, dated 2017)",
  "key": {"[1]": {"details": "cited from earlier work"}, "[2]": {"details": "cited from earlier work; for time to steady state level: montelukast"}, "[3]": {"details": "with warfarin, theophylline, digoxin, terfenadine, oral contraceptives, or prednisone; cited from earlier work"}, "Henoch Schonlein Purpura": {"test_system": "Henoch Schonlein Purpura", "assay": "Example 2 case study: person with Henoch Schonlein Purpura", "assay_type": "in vivo, human", "details": "before the combination; ibuprofen and diphenhydramine", "excerpt": "Case Study: person with Henoch Schonlein Purpura The patient is a person originally seen and evaluated in London, England, Feb. […] […] The ibuprofen and diphenhydramine were discontinued."}, "influenza": {"test_system": "influenza", "details": "2009 H1N1 pandemic; cited from earlier work"}, "[4]": {"test_system": "Churg-Strauss Syndrome (eosinophilic vasculitis)", "assay": "Example 1 case study: person with Churg-Strauss Syndrome", "assay_type": "in vivo, human", "details": "2010, patient history"}, "human rhinovirus": {"test_system": "human rhinovirus", "details": "airway epithelial cells; cited from earlier work"}, "IL-4, IL-6, and IL-8": {"test_system": "IL-4, IL-6, and IL-8", "details": "cited from earlier work"}, "[5]": {"details": "in vivo; cited from earlier work"}, "[6]": {"details": "cited from earlier work", "remark": "listed apart in the source"}, "H1 receptor": {"target": "H1 receptor (Homo sapiens, UniProt P35367)", "sequence (P35367 whole entry)": "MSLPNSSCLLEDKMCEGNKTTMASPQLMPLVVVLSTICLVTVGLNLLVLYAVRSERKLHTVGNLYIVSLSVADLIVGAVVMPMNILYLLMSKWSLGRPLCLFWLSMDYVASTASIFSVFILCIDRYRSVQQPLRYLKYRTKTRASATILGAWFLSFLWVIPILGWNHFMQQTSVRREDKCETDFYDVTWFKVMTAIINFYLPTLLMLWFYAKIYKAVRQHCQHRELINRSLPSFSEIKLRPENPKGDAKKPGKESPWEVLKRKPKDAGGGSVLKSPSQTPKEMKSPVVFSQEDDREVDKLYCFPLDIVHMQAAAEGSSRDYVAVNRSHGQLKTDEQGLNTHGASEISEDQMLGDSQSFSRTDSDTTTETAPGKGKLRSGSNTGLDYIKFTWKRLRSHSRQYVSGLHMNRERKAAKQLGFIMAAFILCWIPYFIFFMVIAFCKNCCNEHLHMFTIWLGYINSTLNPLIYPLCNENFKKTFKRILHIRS", "details": "acidic pH (inflamed tissue), relative to first generation molecules, cited from earlier work"}, "[7]": {"test_system": "histamine induced wheal and flare", "details": "cited from earlier work"}, "eosinophil migration": {"test_system": "eosinophil migration", "details": "cited from earlier work"}},
  "note": "Like-named read-outs stand apart in the source and are kept apart here.",
  "data": [
    {"compound": "CC(C)(O)c1ccccc1CC[C@@H](SCC1(CC(=O)O)CC1)c1cccc(/C=C/c2ccc3ccc(Cl)cc3n2)c1", "note": "[montelukast]", "values": [
      {"measurement": "doses administered without clinically important adverse experiences", "setting": "[1]; adult patients for 22 weeks", "result": "up to 200 mg/day"},
      {"measurement": "doses administered without clinically important adverse experiences", "setting": "[1]; short-term studies, patients for approximately one week", "result": "up to 900 mg/day"},
      {"measurement": "IV plasma concentration area under the curve profile versus oral tablet", "setting": "[2]; IV 7 mg vs approved 10 mg oral tablet", "result": "comparable"},
      {"measurement": "linearity of pharmacokinetics", "setting": "[2]; in vivo", "result": "linear pharmacokinetics to 50 mg"},
      {"measurement": "time to peak plasma concentration", "setting": "[2]; in vivo", "result": "3 to 4", "unit": "h"},
      {"measurement": "time to steady state level", "setting": "[2]", "result": "within two days"},
      {"measurement": "time to steady state level", "setting": "[2]; listed as Montelukast", "result": "less than two days"},
      {"measurement": "effect of a standard meal on oral bioavailability and Cmax", "setting": "[2]; standard meal", "result": "not affected"},
      {"measurement": "drug interactions", "setting": "[3]", "result": "no drug interactions"}
    ]},
    {"compound": "CC(C)Cc1ccc(C(C)C(=O)O)cc1", "note": "(centres unmarked) [ibuprofen]", "values": [
      {"measurement": "response of recurrent Henoch Schonlein Purpura", "setting": "Henoch Schonlein Purpura", "result": "poorly responsive"}
    ]},
    {"compound": "CCOC(=O)C1=C[C@@H](OC(CC)CC)[C@H](NC(C)=O)[C@@H](N)C1", "note": "[oseltamivir]", "values": [
      {"measurement": "influenza related lower respiratory tract complications", "setting": "influenza", "result": "did not appear to reduce"}
    ]},
    {"compound": "CN(C)CCOC(c1ccccc1)c1ccccc1", "note": "[diphenhydramine]", "values": [
      {"measurement": "response of recurrent Henoch Schonlein Purpura", "setting": "Henoch Schonlein Purpura", "result": "poorly responsive"}
    ]},
    {"compound": "omalizumab", "values": [
      {"measurement": "trial for severe asthma", "setting": "[4]", "result": "Unsuccessful"}
    ]},
    {"compound": "O=C(O)COCCN1CCN([C@H](c2ccccc2)c2ccc(Cl)cc2)CC1", "note": "[levocetirizine]", "values": [
      {"measurement": "rhinovirus-induced ICAM-1 and cytokine expression and viral replication", "setting": "human rhinovirus", "result": "inhibits"},
      {"measurement": "inflammatory mediators, IL-4, IL-6, and IL-8", "setting": "IL-4, IL-6, and IL-8", "result": "decrease"},
      {"measurement": "time to steady state level", "setting": "[5]", "result": 40, "unit": "h"},
      {"measurement": "principal side effect at higher doses", "setting": "[6]; higher doses", "result": "Sedation"},
      {"measurement": "doses safely administered in humans", "setting": "[6]; human dosing safety studies", "result": "up to 30 mg/day"},
      {"measurement": "enhanced receptor affinity over first generation mepyramine", "setting": "H1 receptor", "result": "up to 5 ×"},
      {"measurement": "enhanced receptor affinity over first generation mepyramine", "setting": "H1 receptor; listed as Levocetirizine", "result": 5, "unit": "×"},
      {"measurement": "potency among the five modern generation antihistamines", "setting": "[7]; histamine induced wheal and flare data", "result": "most potent"},
      {"measurement": "effectiveness versus fexofenadine", "setting": "[7]; levocetirizine 5 mg per day vs fexofenadine 180 mg per day", "result": "more effective than fexofenadine"},
      {"measurement": "eosinophil migration / quantity", "setting": "eosinophil migration", "result": "decrease"}
    ]}
  ]
}
